Columns and labels:
Test in all cases: relative viability (nuclei count vs DMSO), 5 days (fraction); higher = more cells survive
[1] = compound: CC[C@@H]1C(=O)N(C)c2cnc(Nc3ccc(C(=O)NC4CCN(C)CC4)cc3OC)nc2N1C1CCCC1 [BI-2536] + O=C(c1cc(Cc2n[nH]c(=O)c3ccccc23)ccc1F)N1CCN(C(=O)C2CC2)CC1 [Olaparib] (partner 8 µM)
Method in brief: (§1)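 Relative viability is defined as nuclei in treated wells over nuclei in vehicle wells. Duplicate plates were run and medians reported. Lung cancer cell lines in 1536-well plates were dosed by pin tool one day after seeding, with one drug or with a fixed anchor-drug dose plus five library-drug doses (not always all listed) in √10 steps, and nuclei were counted after 5 days.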

[2] = compound: CC[C@@H]1C(=O)N(C)c2cnc(Nc3ccc(C(=O)NC4CCN(C)CC4)cc3OC)nc2N1C1CCCC1 [BI-2536] + Cc1cc(Nc2cc(N3CCN(C)CC3)nc(Sc3ccc(NC(=O)C4CC4)cc3)n2)n[nH]1 [Tozasertib] (partner 0.1 µM)
Method in brief: as §1

[3] = compound: CC1CC(=O)N(C2=CN=C(N=C2N1C3CCCC3)NC4=C(C=C(C=C4)C(=O)NC5CCN(CC5)C)OC)C [NPK76-II-72-1] + O=C(CCCCCCC(=O)Nc1ccccc1)NO [Vorinostat] (partner 1 µM)
Method in brief: as §1

[4] = compound: CC[C@@H]1C(=O)N(C)c2cnc(Nc3ccc(C(=O)NC4CCN(C)CC4)cc3OC)nc2N1C1CCCC1 [BI-2536] + CCNC(=O)c1noc(-c2cc(C(C)C)c(O)cc2O)c1-c1ccc(CN2CCOCC2)cc1 [Luminespib] (partner 0.01 µM)
Method in brief: as §1

Row | Cell Line | relative viability ([1]; first compound 0.01 µM) | relative viability ([1]; first compound 0.03162 µM) | relative viability ([1]; first compound 0.1 µM) | relative viability ([1]; first compound 0.3162 µM) | relative viability ([1]; first compound 1 µM) | relative viability ([2]; first compound 0.01 µM) | relative viability ([2]; first compound 0.03162 µM) | relative viability ([2]; first compound 0.1 µM) | relative viability ([2]; first compound 0.3162 µM) | relative viability ([2]; first compound 1 µM) | relative viability ([3]; first compound 0.01 µM) | relative viability ([3]; first compound 0.03162 µM) | relative viability ([3]; first compound 0.1 µM) | relative viability ([3]; first compound 0.3162 µM) | relative viability ([3]; first compound 1 µM) | relative viability ([4]; first compound 0.01 µM) | relative viability ([4]; first compound 0.03162 µM) | relative viability ([4]; first compound 0.1 µM) | relative viability ([4]; first compound 0.3162 µM) | relative viability ([4]; first compound 1 µM)
1 | HCC-366 | 0.323 | 0.368 | 0.21 | 0.0235 | 0.0223 | 0.119 | 0.169 | 0.115 | 0.038 | 0.0412 | 0.358 | 0.361 | 0.394 | 0.322 | 0.461 |  |  |  |  | 
2 | SK-MES-1 | 0.72 | 0.656 | 0.199 | 0.165 | 0.177 | 0.956 | 0.801 | 0.191 | 0.151 | 0.172 | 1.06 | 1.05 | 1.12 | 1.17 | 1.22 | 0.802 | 0.698 | 0.23 | 0.219 | 0.195
3 | SW 1573 | 0.446 | 0.266 | 0.12 | 0.1 | 0.0718 | 0.192 | 0.166 | 0.159 | 0.127 | 0.121 | 0.787 | 0.916 | 0.637 | 0.532 | 0.831 | 0.123 | 0.117 | 0.152 | 0.122 | 0.0874
4 | NCI-H661 | 0.763 | 0.468 | 0.354 | 0.335 | 0.34 | 0.367 | 0.373 | 0.384 | 0.316 | 0.31 | 0.772 | 0.785 | 0.755 | 0.735 | 0.795 | 0.944 | 0.936 | 0.347 | 0.296 | 0.257
5 | PC-3 [JPC-3] | 1.22 | 0.896 | 0.582 | 0.327 | 0.369 | 0.889 | 0.693 | 0.707 | 0.289 | 0.313 | 0.807 |  | 0.799 | 0.848 | 0.905 | 0.705 | 0.683 | 0.496 | 0.215 | 0.205
6 | NCI-H1623 |  |  |  |  |  | 0.478 | 0.448 | 0.383 | 0.402 | 0.328 |  |  |  |  |  | 0.402 | 0.508 | 0.374 | 0.405 | 0.388
7 | Calu-6 | 0.533 | 0.524 | 0.243 | 0.0982 | 0.0892 |  |  |  |  |  |  |  |  |  |  |  |  |  |  | 
8 | LC-2-ad | 0.705 | 0.621 | 0.24 | 0.205 | 0.205 | 0.412 | 0.278 | 0.279 | 0.318 | 0.383 | 0.619 | 0.768 | 0.668 | 0.755 | 0.698 | 0.897 | 0.319 | 0.325 | 0.289 | 0.375
9 | CAL-12T | 0.682 | 0.596 | 0.493 | 0.167 | 0.19 | 0.291 | 0.294 | 0.2 | 0.194 | 0.186 | 0.532 | 0.798 | 0.687 | 0.812 | 0.688 | 0.774 | 0.229 | 0.173 | 0.124 | 0.202

Reference: the supplement of paper PMC10307832
